# Laboratory results taken from ChEMBL document CHEMBL4602617, “Discovery and optimization of heteroaryl piperazines as potent and selective PI3Kδ inhibitors” (Bioorg Med Chem Lett, 2020).
# Columns and labels:
# [1] = target: Neurotensin receptor type 1 (Homo sapiens) (UniProt P30989); test: Displacement of [125I]neurotensin from NT1 receptor in human HEK293 EBNA cell membranes at 10 uM measured after 45 mins by radiometric scintillation analysis relative to control
# [2] = target: 5-hydroxytryptamine receptor 2B (Homo sapiens) (UniProt P41595); test: Displacement of [3H]lysergic acid diethylamide from full length human recombinant 5HT2B receptor expressed in CHOK-1 cells at 10 uM measured after 60 mins by radiometric scintillation analysis relative to control; assay type: cell-based
# [3] = target: Alpha-2B adrenergic receptor (Homo sapiens) (UniProt P18089); test: Displacement of [3H]rauwolscine from full-length recombinant human alpha2B receptor expressed in CHOK1 cells at 10 uM measured after 60 mins by scintillation counting method relative to control; assay type: cell-based; details: CHO-K1
# Sequence of Alpha-2B adrenergic receptor (Homo sapiens) (P18089 whole entry): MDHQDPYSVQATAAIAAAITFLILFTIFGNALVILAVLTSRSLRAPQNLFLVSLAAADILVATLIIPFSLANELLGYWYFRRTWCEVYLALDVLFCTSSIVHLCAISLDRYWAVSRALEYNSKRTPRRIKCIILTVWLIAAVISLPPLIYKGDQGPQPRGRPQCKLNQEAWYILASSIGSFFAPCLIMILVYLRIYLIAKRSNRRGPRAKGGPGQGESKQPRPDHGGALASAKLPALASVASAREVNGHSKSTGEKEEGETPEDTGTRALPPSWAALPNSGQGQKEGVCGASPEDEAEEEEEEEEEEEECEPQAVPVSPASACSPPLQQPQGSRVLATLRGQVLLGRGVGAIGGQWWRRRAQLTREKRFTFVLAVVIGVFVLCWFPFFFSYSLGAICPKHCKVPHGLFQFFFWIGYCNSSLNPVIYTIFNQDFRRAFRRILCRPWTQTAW
# [4] = target: Serine/threonine-protein kinase PAK 3 (Homo sapiens, UniProt O75914); test: Inhibition of recombinant full length human His-tagged PAK3 expressed in baculovirus expression system using serine/threonine-20 peptide as substrate incubated for 60 mins in presence of ATP by Z'-LYTE assay
# Sequence of Serine/threonine-protein kinase PAK 3 (O75914 whole entry, the tested form may be a part): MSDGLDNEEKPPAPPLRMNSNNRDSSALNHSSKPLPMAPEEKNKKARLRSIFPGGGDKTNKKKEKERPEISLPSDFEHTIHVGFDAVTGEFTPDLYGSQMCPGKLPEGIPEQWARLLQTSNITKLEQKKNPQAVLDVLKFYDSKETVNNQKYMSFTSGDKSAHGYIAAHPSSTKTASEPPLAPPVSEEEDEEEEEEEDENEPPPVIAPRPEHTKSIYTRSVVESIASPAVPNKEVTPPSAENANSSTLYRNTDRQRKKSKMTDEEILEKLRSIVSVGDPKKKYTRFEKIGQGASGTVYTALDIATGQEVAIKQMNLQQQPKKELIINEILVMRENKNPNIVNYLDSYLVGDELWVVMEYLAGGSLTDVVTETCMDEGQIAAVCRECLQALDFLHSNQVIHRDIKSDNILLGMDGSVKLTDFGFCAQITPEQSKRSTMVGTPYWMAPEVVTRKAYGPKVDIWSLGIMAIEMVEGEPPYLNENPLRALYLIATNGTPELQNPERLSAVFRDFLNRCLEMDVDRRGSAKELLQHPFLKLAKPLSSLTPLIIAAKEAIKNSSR
# [5] = target: Vascular endothelial growth factor receptor 1 (Homo sapiens, UniProt P17948); test: Inhibition of recombinant human GST-tagged FLT1 catalytic domain (781 to 1338 residues) expressed in baculovirus expression system using tyrosine-4 peptide as substrate incubated for 60 mins in presence of ATP by Z'-LYTE assay
# [6] = target: Tyrosine-protein kinase JAK2 (Homo sapiens, UniProt O60674); test: Inhibition of human recombinant GST tagged JAK2 catalytic domain expressed in baculovirus expression system using Tyr6 peptide as substrate measured after 1 hr in presence of ATP by Z'-LYTE assay
# [7] = target: cGMP-dependent protein kinase 2 (Homo sapiens, UniProt Q13237); test: Inhibition of recombinant full length GST-tagged human PKG2 expressed in baculovirus expression system using Ser/Thr 01 as substrate after 1 hr in presence of ATP by Z'-LYTE assay
# [8] = target: Insulin receptor (Homo sapiens, UniProt P06213); test: Inhibition of recombinant human GST-tagged INSR cytoplasmic domain expressed in baculovirus expression system using tyrosine-1 peptide as substrate incubated for 60 mins in presence of ATP by Z'-LYTE assay
# Sequence of Insulin receptor (P06213 28-758 limits assumed): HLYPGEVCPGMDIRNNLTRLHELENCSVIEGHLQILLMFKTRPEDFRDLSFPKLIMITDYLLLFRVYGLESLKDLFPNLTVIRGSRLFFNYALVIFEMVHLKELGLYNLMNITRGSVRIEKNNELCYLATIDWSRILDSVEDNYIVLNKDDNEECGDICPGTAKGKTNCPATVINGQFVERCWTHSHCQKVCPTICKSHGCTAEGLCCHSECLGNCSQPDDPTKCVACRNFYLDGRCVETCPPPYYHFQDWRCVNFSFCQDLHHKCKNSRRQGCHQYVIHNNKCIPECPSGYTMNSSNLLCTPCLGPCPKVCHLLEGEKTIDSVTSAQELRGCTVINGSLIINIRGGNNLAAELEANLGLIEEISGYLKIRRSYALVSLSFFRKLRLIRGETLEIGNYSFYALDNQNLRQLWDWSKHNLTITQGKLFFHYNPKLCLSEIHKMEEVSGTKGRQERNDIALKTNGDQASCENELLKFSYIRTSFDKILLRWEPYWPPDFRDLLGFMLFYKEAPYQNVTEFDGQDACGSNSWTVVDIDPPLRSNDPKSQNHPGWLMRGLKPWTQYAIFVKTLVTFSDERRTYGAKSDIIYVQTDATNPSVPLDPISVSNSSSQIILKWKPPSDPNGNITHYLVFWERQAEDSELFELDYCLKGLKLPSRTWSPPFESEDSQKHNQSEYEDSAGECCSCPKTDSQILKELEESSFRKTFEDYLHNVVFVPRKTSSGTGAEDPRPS
# Sequence of Insulin receptor (P06213 763-1382 limits assumed): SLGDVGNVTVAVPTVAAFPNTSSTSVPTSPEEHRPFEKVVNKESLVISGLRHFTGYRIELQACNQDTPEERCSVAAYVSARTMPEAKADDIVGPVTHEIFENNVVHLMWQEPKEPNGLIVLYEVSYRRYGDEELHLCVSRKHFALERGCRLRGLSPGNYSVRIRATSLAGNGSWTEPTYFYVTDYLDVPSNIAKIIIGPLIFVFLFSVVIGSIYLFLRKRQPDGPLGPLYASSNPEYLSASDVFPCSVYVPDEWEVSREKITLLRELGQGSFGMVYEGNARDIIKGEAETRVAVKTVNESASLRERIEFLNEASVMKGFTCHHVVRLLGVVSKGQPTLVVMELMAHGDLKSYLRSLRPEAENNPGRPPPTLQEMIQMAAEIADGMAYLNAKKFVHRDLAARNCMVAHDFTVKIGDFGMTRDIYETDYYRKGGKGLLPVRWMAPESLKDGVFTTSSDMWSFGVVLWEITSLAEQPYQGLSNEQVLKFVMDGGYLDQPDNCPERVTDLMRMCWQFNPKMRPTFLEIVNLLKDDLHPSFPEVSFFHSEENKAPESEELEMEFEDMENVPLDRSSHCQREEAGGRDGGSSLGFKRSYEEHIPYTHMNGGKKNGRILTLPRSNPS
# [9] = target: Substance-K receptor (Homo sapiens) (UniProt P21452); test: Inhibition of human NK2 receptor at 10 uM relative to control
# Sequence of Substance-K receptor (Homo sapiens) (P21452 whole entry, the tested form may be a part): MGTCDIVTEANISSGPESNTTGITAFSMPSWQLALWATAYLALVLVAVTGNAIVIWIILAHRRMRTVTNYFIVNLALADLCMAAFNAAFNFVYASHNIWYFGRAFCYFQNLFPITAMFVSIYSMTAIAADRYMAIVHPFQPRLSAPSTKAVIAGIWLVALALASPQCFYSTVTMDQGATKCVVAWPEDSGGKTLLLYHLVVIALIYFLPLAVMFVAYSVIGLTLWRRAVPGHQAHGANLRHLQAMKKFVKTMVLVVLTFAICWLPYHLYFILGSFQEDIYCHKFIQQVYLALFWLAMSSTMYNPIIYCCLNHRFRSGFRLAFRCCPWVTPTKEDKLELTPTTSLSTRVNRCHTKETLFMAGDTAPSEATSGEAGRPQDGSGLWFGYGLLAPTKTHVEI
# [10] = target: Retinoic acid receptor RXR-alpha (Homo sapiens) (UniProt P19793); test: Displacement of [3H]-9-cis-Retinoic acid from human recombinant RXRalpha receptor LBD domain expressed in Escherichia coli at 10 uM measured after 16 hrs by radiometric scintillation analysis relative to control
# [11] = target: Tyrosine-protein kinase Fer (Homo sapiens, UniProt P16591); test: Inhibition of recombinant GST-tagged human FER (541 to 822 residues) cytoplasmic domain expressed in baculovirus expression system using Tyr 05 peptide as substrate after 1 hr in presence of ATP by Z'-LYTE assay
# Sequence of Tyrosine-protein kinase Fer (P16591 whole entry, the tested form may be a part): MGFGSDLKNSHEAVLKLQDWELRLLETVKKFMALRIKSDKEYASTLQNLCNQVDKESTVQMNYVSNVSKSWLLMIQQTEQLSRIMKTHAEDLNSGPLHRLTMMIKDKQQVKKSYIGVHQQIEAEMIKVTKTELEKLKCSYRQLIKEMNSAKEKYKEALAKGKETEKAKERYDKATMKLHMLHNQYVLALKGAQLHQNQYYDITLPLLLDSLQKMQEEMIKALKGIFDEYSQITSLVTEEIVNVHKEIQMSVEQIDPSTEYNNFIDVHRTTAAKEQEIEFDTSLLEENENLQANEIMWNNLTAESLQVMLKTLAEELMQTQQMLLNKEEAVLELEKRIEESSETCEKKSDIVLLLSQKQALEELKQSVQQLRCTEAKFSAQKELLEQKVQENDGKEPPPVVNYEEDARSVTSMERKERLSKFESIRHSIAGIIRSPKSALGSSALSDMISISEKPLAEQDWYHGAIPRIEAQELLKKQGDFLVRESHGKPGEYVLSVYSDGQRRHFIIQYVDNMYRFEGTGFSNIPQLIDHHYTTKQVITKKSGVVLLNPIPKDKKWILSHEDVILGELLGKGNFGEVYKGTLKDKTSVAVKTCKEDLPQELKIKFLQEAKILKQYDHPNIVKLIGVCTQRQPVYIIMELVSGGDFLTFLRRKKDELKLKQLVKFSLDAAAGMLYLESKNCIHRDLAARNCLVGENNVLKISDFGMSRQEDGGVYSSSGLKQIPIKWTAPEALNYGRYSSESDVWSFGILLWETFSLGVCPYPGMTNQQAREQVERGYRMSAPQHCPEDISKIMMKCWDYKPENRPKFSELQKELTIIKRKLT
# [12] = target: Alpha-2C adrenergic receptor (Homo sapiens) (UniProt P18825); test: Displacement of [3H]rauwolscine from full-length recombinant human alpha2C receptor expressed in CHOK1 cells at 10 uM measured after 60 mins by scintillation counting method relative to control; assay type: cell-based; details: CHO-K1
# Sequence of Alpha-2C adrenergic receptor (Homo sapiens) (P18825 whole entry): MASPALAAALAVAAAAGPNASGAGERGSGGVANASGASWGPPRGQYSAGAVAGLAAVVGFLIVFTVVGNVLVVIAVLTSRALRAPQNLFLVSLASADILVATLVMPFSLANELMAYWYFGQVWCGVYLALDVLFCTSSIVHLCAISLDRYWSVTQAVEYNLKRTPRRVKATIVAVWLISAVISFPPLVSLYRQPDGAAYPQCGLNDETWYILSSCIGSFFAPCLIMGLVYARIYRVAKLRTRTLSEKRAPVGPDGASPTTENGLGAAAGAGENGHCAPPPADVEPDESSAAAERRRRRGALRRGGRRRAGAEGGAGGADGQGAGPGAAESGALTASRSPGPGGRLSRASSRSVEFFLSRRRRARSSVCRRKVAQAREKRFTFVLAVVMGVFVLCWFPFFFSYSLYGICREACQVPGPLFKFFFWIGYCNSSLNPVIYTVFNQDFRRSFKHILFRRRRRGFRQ
# [13] = target: Muscarinic acetylcholine receptor M5 (Homo sapiens) (UniProt P08912); test: Displacement of [3H]N-Methylscopolamine from full length human recombinant Muscarinic M5 receptor expressed in CHOK1 cells at 10 uM measured after 120 mins by radiometric scintillation analysis relative to control; assay type: cell-based; details: CHO-K1
# Sequence of Muscarinic acetylcholine receptor M5 (Homo sapiens) (P08912 whole entry, the tested form may be a part): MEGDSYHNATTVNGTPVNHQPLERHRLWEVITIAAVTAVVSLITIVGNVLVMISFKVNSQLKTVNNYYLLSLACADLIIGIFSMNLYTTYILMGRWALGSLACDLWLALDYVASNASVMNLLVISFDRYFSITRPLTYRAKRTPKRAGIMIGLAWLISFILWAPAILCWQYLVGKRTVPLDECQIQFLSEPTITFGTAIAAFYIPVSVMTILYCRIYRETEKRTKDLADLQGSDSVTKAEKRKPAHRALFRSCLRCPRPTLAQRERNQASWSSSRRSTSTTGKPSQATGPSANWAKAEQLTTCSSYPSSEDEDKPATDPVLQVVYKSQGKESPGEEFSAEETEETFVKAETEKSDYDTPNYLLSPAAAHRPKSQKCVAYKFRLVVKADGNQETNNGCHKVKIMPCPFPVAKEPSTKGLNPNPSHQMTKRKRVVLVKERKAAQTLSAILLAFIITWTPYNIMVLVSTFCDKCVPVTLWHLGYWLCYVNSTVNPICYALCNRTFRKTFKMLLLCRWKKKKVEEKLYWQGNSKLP
# [14] = target: Leucine-rich repeat serine/threonine-protein kinase 2 (Homo sapiens, UniProt Q5S007); test: Inhibition of recombinant human GST-tagged LRRK2 catalytic domain (970 to 2527 amino acids) expressed in baculovirus expression system using ERM (LRRKtide) peptide as substrate incubated for 60 mins in presence of ATP by Adapta assay
# [15] = target: Metabotropic glutamate receptor 5 (Homo sapiens) (UniProt P41594); test: Displacement of [3H]quisqualic acid from full length human recombinant mGlu5 receptor expressed in CHO-K1 cells at 10 uM measured after 120 mins by radiometric scintillation analysis relative to control; assay type: cell-based
# [16] = target: Tyrosine-protein kinase ZAP-70 (Homo sapiens, UniProt P43403); test: Inhibition of recombinant full length human His-tagged ZAP70 cytoplasmic domain expressed in baculovirus expression system using fluorophore-labeled tyrosine-07 peptide as substrate incubated for 60 mins in presence of ATP by Z'-LYTE assay
# [17] = target: Serine/threonine-protein kinase MRCK alpha (Homo sapiens, UniProt Q5VT25); test: Inhibition of recombinant human His-tagged MRCKalpha catalytic domain (1 to 473 residues) expressed in baculovirus expression system using serine/threonine-13 peptide as substrate incubated for 60 mins in presence of ATP by Z'-LYTE assay
# [18] = target: Ephrin type-B receptor 2 (Homo sapiens, UniProt P29323); test: Inhibition of recombinant human GST-tagged EPHB2 catalytic domain (616 to 884 residues) expressed in baculovirus expression system using tyrosine-2 peptide as substrate incubated for 60 mins in presence of ATP by Z'-LYTE assay
# [19] = target: Serine/threonine-protein kinase N1 (Homo sapiens, UniProt Q16512); test: Inhibition of recombinant full length GST-tagged human PKN1 expressed in baculovirus expression system using Ser/Thr 07 as substrate in presence of ATP after 1 hr by Z'-LYTE assay
# [20] = target: Proto-oncogene tyrosine-protein kinase ROS (Homo sapiens, UniProt P08922); test: Inhibition of recombinant human GST-tagged ROS1 cytoplasmic domain expressed in baculovirus expression system using tyrosine-2 peptide as substrate incubated for 60 mins in presence of ATP by Z'-LYTE assay
# [21] = Distribution coefficient, logD of compound by HPLC analysis; assay type: physicochemical; details: octanol/water
# [22] = Clearance in dog plasma at 0.5 mg/kg, iv or 1 mg/kg, po; assay type: ADME, organism-based, Canis lupus familiaris
# [23] = target: C-X-C chemokine receptor type 4 (Homo sapiens) (UniProt P61073); test: Displacement of [125I]SDF-1alpha from recombinant full length human recombinant CXCR4 expressed in Chem-1 cells at 10 uM measured after 90 mins by radiometric scintillation analysis relative to control; assay type: cell-based
# Sequence of C-X-C chemokine receptor type 4 (Homo sapiens) (P61073 whole entry, the tested form may be a part): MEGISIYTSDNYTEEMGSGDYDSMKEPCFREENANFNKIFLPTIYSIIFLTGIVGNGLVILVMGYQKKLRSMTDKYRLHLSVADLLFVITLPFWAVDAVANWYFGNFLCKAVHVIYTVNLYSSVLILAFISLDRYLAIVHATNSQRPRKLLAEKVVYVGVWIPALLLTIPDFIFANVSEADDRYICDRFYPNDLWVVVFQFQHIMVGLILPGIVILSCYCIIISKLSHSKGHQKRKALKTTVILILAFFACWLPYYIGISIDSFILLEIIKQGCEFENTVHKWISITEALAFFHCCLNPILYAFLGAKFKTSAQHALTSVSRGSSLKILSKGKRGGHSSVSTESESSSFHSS
# [24] = target: NT-3 growth factor receptor (Homo sapiens, UniProt Q16288); test: Inhibition of recombinant human His-tagged TrkC cytoplasmic domain (510 to 825 residues) expressed in baculovirus using tyr 01 as substrate incubated for 1 hr in presence of ATP by Z'-Lyte assay
# [25] = target: C-C chemokine receptor type 1 (Homo sapiens) (UniProt P32246); test: Displacement of [125I]MIP-1alpha from recombinant full length human recombinant CCR1 expressed in Chem2 cells at 10 uM measured after 3 hrs by radiometric scintillation analysis relative to control; assay type: cell-based
# [26] = target: Phosphorylase b kinase gamma catalytic chain, skeletal muscle/heart isoform (Homo sapiens, UniProt Q16816); test: Inhibition of recombinant full length human GST-tagged PHKG1 expressed in baculovirus expression system using serine/threonine-7 peptide as substrate incubated for 60 mins in presence of ATP by Z'-LYTE assay
structure (smiles),measurement,setting,value
C[C@@H]1C[C@H]1C(=O)N1CCN(c2cnc(C#N)c(-c3cnn(C)c3)n2)C[C@H]1C,inhibition,[1],1%
same,inhibition,[2],19%
same,inhibition,[3],11%
same,IC50,[4],> 100 µM
same,IC50,[5],> 100 µM
same,IC50,[6],> 100 µM
same,IC50,[7],> 100 µM
same,IC50,[8],> 100 µM
same,inhibition,[9],1%
same,inhibition,[10],8%
same,IC50,[11],> 100 µM
same,inhibition,[12],5%
same,inhibition,[13],1%
same,IC50,[14],> 100 µM
same,inhibition,[15],8%
same,IC50,[16],> 100 µM
same,IC50,[17],> 100 µM
same,IC50,[18],> 100 µM
same,IC50,[19],> 100 µM
same,IC50,[20],> 100 µM
same,logD,[21],1.6
same,clearance,[22],8 mL/min/kg
same,inhibition,[23],5%
same,IC50,[24],> 100 µM
same,inhibition,[25],8%
same,IC50,[26],> 100 µM
